Assay: Solubility
Assay type: physicochemical
Details: precipitation at higher concentrations in the assay

- solubility: poor solubility
Compound: O=C(Nc1ccc(-c2ccccc2)cc1)Nc1ccc(-c2ccnc3[nH]cnc23)cc1 [Compound 17]
